Measurements published in US20220143045A1, “PROGESTERONE RECEPTOR ANTAGONIST DOSAGE FORM” (BAYER PHARMA AKTIENGESELLSCHAFT, priority 2013, published 2022).
Where “and” joins values, the source holds several entries; their conditions need not be identical. Equal entries are not always repeated.

Key:
Format in all cases: in vivo, human
healthy female subjects [1] = experiment: Dose-effect of 84 days treatment: bleeding pattern (non-bleeding rate), daily self-assessment
Text: • 1. Healthy female subjects, sterilized by tubal ligation • 2. Age at screening: 18-45 years • 3. Body mass index (BMI) at screening: ≥18 and ≤32 kg/m^2 • 4. At least 3 consecutive regular menstrual cycles with a cycle length of 24-35 days before first screening examination according to the subject's history • 5. Absence of clinically relevant abnormal findings in the pre-treatment endometrial biopsy • 6. Adequate venous access (frequent blood sampling)
The subject had to start the intake of the study drugs on the first or second day of menstrual bleeding after the pre-treatment cycle. The pre-treatment cycle started on the first day of the subject's menstrual bleeding after screening examinations had shown that the subject was eligible for further participation. After the pre-treatments cycle treatment was started. The treatment period started with the first and ended with the last intake of compound 1. For each intake day the subject received one bottle containing 4 tablets. The number of tablets taken and the intake time had to be documented in the diary.
The evaluation of bleeding pattern was based on a daily self-assessment of the bleeding intensity by the subject. These assessments were categorized as defined below. The subjects were provided with an explanation of the categories in local language, and were asked to document the bleeding intensity in their diaries accordingly (one entry per day).
Administration of compound 1 occurred during 84 days (multiple doses administration).

healthy female subjects [2] = experiment: Endometrial thickness by transvaginal ultrasound during treatment; details: 2 mg, 84 days, versus other dosages (FIG. 2)
Description: (§1) As described in example 2.
The endometrial thickness was measured in the medio-sagittal section as double-layer in millimeters using transvaginal ultrasound.

healthy female subjects [3] = experiment: Return of bleeding after end of treatment (84 days); details: for Number of days until first bleeding after end of treatment (mean ± SD) / Number of days until first bleeding after end of treatment (min − max): PPS
Text: as §1
The first day of bleeding after the end of the treatment was marked.

healthy female subjects [4] = experiment: Ovulation inhibition: follicle size, estradiol (E2), progesterone (P)
Text: Protocol: Randomized Study population of healthy female subjects as described in example 2 above.
Blood samples were obtained from healthy female subjects for the determination of Estradiol (E2), Progesterone (P), luteinizing hormone (LH) and follicle stimulating hormone (FSH) in serum and taken at the same time points as listed below during the pre-treatment cycle, the treatment and follow-up cycle. Transvaginal ultrasound (TVU) was used to monitor ovarian follicular growth during pretreatment (days 9 and 21), treatment (days 7, 14, 21, 28, 35, 42, 49, 56, 63, 70, 77, 84) and follow-up cycle (days 9 and 21).

[5] = 0.5 mg once daily per os, 84 days
[6] = 0.1 mg, n = 11, treatment period
[7] = 0.1 mg, n = 11, treatment period, (third category)
[8] = 0.5 mg, n = 11, treatment period
[9] = 0.5 mg, n = 11, treatment period, (third category)
[10] = 1 mg, n = 12, treatment period, (third category)
[11] = 2 mg, n = 12, treatment period, (third category)
[12] = 5 mg, n = 11, treatment period, (third category)

Compound: C[C@]12C[C@H](c3ccc(S(C)(=O)=O)cc3)C3=C4CCC(=O)C=C4CC[C@H]3[C@@H]1CC[C@@]2(O)C(F)(F)C(F)(F)F [compound 1, (11β,17β)-17-Hydroxy-11-[4-(methylsulphonyl)phenyl]-17-(pentafluoroethyl)estra-4,9-dien-3-one]
- number of subjects with no further bleeding during the treatment period (out of 11) (healthy female subjects [1]; [5]): 3
- subjects with no further bleeding during the treatment period (healthy female subjects [1]; [5]): 27%
- number of days of bleeding during the treatment period (healthy female subjects [1]; 0.1-5 mg once daily per os, 84 days): marked and dose-dependent reduction
- dosage at which 50% of dose-dependent reduction of bleeding is observed (healthy female subjects [1]; 84 days treatment, posterior of non-bleeding rate (FIG. 1)): 0.7 mg
- saturation of non-bleeding rate (healthy female subjects [1]; from 2 mg up to 5 mg, 84 days): around 95%
- amenorrhea (non-bleeding) (healthy female subjects [1]; healthy subjects, dosage of 2 mg): 92.5%
- maximum thickness of the endometrium within treatment epoch (healthy female subjects [2]): lower maximum thickness of the endometrium compared to other dosages
- Number of days until first bleeding after end of treatment (mean ± SD) (healthy female subjects [3]; 0.1 mg, n = 11): 12.2 ± 9.9 days
- Number of days until first bleeding after end of treatment (min − max) (healthy female subjects [3]; 0.1 mg, n = 11): (3 − 35) days
- Number of days until first bleeding after end of treatment (mean ± SD) (healthy female subjects [3]; 0.5 mg, n = 11): 14.8 ± 10.2 days
- Number of days until first bleeding after end of treatment (min − max) (healthy female subjects [3]; 0.5 mg, n = 11): ( 1 − 28) days
- Number of days until first bleeding after end of treatment (mean ± SD) (healthy female subjects [3]; 1 mg, n = 10): 20.3 ± 6.2 days
- Number of days until first bleeding after end of treatment (min − max) (healthy female subjects [3]; 1 mg, n = 10): (8 − 28) days
- Number of days until first bleeding after end of treatment (mean ± SD) (healthy female subjects [3]; 2 mg, n = 12): 25 days and 25.8 ± 11.1 days
- Number of days until first bleeding after end of treatment (min − max) (healthy female subjects [3]; 2 mg, n = 12): (9 − 52) days
- delayed return of bleeding after treatment, one subject (healthy female subjects [3]; 2 mg, single subject): about 52 days
- Number of days until first bleeding after end of treatment (mean ± SD) (healthy female subjects [3]; 5 mg, n = 11): 20.9 ± 10.9 days
- Number of days until first bleeding after end of treatment (min − max) (healthy female subjects [3]; 5 mg, n = 11): (1 − 38) days
- number of subjects with Follicle size ≤ 13 mm (healthy female subjects [4]; [6]): 1
- percentage of subjects with Follicle size ≤ 13 mm (healthy female subjects [4]; [6]): 9%
- number of subjects with Follicle size > 13 mm + Estradiol > 27.2 pg/mL + Progesterone < 1.57 μg/L (healthy female subjects [4]; [7]): 10
- percentage of subjects with Follicle size > 13 mm + Estradiol > 27.2 pg/mL + Progesterone < 1.57 μg/L (healthy female subjects [4]; [7]): 91%
- number of subjects with Follicle size > 13 mm + Estradiol > 27.2 pg/mL + Progesterone < 1.57 μg/L (healthy female subjects [4]; [8]): 6
- percentage of subjects with Follicle size > 13 mm + Estradiol > 27.2 pg/mL + Progesterone < 1.57 μg/L (healthy female subjects [4]; [8]): 55%
- number of subjects with Follicle size > 13 mm + Estradiol > 27.2 pg/mL + Progesterone < 1.57 μg/L (healthy female subjects [4]; [9]): 5
- percentage of subjects with Follicle size > 13 mm + Estradiol > 27.2 pg/mL + Progesterone < 1.57 μg/L (healthy female subjects [4]; [9]): 45%
- number of subjects with Follicle size > 13 mm + Estradiol > 27.2 pg/mL + Progesterone < 1.57 μg/L (healthy female subjects [4]; 1 mg, n = 12, treatment period): 9
- number of subjects with Follicle size ≤ 13 mm (healthy female subjects [4]; 1 mg, n = 12, treatment period): 1
- percentage of subjects with Follicle size > 13 mm + Estradiol > 27.2 pg/mL + Progesterone < 1.57 μg/L (healthy female subjects [4]; 1 mg, n = 12, treatment period): 75%
- percentage of subjects with Follicle size ≤ 13 mm (healthy female subjects [4]; 1 mg, n = 12, treatment period): 8%
- number of subjects with Follicle size > 13 mm + Estradiol > 27.2 pg/mL + Progesterone < 1.57 μg/L (healthy female subjects [4]; [10]): 2
- percentage of subjects with Follicle size > 13 mm + Estradiol > 27.2 pg/mL + Progesterone < 1.57 μg/L (healthy female subjects [4]; [10]): 17%
- number of subjects with Follicle size > 13 mm + Estradiol > 27.2 pg/mL + Progesterone < 1.57 μg/L (healthy female subjects [4]; 2 mg, n = 12, treatment period): 11
- percentage of subjects with Follicle size > 13 mm + Estradiol > 27.2 pg/mL + Progesterone < 1.57 μg/L (healthy female subjects [4]; 2 mg, n = 12, treatment period): 92%
- number of subjects with Follicle size > 13 mm + Estradiol > 27.2 pg/mL + Progesterone < 1.57 μg/L (healthy female subjects [4]; [11]): 1
- percentage of subjects with Follicle size > 13 mm + Estradiol > 27.2 pg/mL + Progesterone < 1.57 μg/L (healthy female subjects [4]; [11]): 8%
- number of subjects with Follicle size > 13 mm + Estradiol > 27.2 pg/mL + Progesterone < 1.57 μg/L (healthy female subjects [4]; 5 mg, n = 11, treatment period): 9
- number of subjects with Follicle size ≤ 13 mm (healthy female subjects [4]; 5 mg, n = 11, treatment period): 1
- percentage of subjects with Follicle size > 13 mm + Estradiol > 27.2 pg/mL + Progesterone < 1.57 μg/L (healthy female subjects [4]; 5 mg, n = 11, treatment period): 82%
- percentage of subjects with Follicle size ≤ 13 mm (healthy female subjects [4]; 5 mg, n = 11, treatment period): 9%
- number of subjects with Follicle size > 13 mm + Estradiol > 27.2 pg/mL + Progesterone < 1.57 μg/L (healthy female subjects [4]; [12]): 1
- percentage of subjects with Follicle size > 13 mm + Estradiol > 27.2 pg/mL + Progesterone < 1.57 μg/L (healthy female subjects [4]; [12]): 9%
- ovulation during treatment (progesterone value <1.57 μg/L) (healthy female subjects [4]; dosages ≥0.5 mg, 84 days): No ovulation occurred in most of the subjects
